Drawing on US20230159527A1, “COMPOUNDS AS BCL-2 INHIBITORS” (Fochon Pharmaceuticals, Ltd., priority 2020, published 2023), this text covers IC50 for ten compounds.

pIC50: −log10 of the molar value.

The experiment deals with Toledo cells. Description: Cell proliferation assay, Toledo cells (MTS, 72 h). To be noted: Homo sapiens, Toledo cells, MTS, read-out: Toledo IC50. In kind it is cell-based. The method, then: MTS testing kit was purchased from Promega (Madison, Wis., USA). The RPMI-1640, Fetal bovine serum and Penicillin-Streptomycin were purchased from BI (Biological Industries, Beit Haemek, Israel). Dimethyl sulfoxide (DMSO) was purchased from Sigma (St. Louis, Mo., USA). Toledo (ATCC catalog #: CRL-2631) cells were cultured in RPMI-1640 supplemented with Penicillin-Streptomycin and 10% FBS.
To investigate whether a compound is able to inhibit the activity of BCL-2 in cells, a mechanism-based assay using Toledo lines was developed. In this assay, the inhibition of BCL-2 was reflected by the inhibition of cell proliferation of Toledo cells. Cells were plated into 96-well plates at the optimized cell density of 30000 cells/well. Plates were incubated at 37° C., with 5% CO2 for 4h. Compounds were serially diluted and added to the plates with the final concentrations of 10000, 3333.3, 1111.1, 370.4, 123.5, 41.2, 13.7, 4.6 and 1.5 nM. Plates were incubated at 37° C., with 5% CO2 for 72 h. 20 μl MTS was added into each well and the plates were incubated at 37° C., with 5% CO2 for exactly 2 h. The absorbance was measured by a microplate reader at 490 nm. IC50 was calculated using GraphPad Prism 5.0 software.
Regarding `CC(C)c1ccccc1[C@@H]1COCCN1C1CC2(CCN(c3ccc(C(=O)NS(=O)(=O)c4cc5c(c([N+](=O)[O-])c4)N[C@@H]([C@H]4CC[C@](C)(O)CC4)CO5)c(Oc4cnc5[nH]cc(F)c5c4)c3)CC2)C1` (single isomer, unassigned) [Example D-1, 2-((3-fluoro-1H-pyrrolo[2,3-b]pyridin-5-yl)oxy)-N-(((S)-3-((1r,4S)-4-hydroxy-4-methylcyclohexyl)-5-nitro-3,4-dihydro-2H-benzo[b] [1,4]oxazin-7-yl)sulfonyl)-4-(2-((R or S)-3-(2-isopropylphenyl)morpholino)-7-azaspiro[3.5]nonan-7-yl) benzamide], the pIC50 was 9.00.
For the compound `CC(C)c1ccccc1[C@@H]1CCCN1C1CC2(CCN(c3ccc(C(=O)NS(=O)(=O)c4cc5c(c([N+](=O)[O-])c4)N[C@@H]([C@H]4CC[C@](C)(O)CC4)CO5)c(Oc4cc5cc[nH]c5nc4OC[C@@H]4COCCN4C(=O)OC(C)(C)C)c3)CC2)C1` (single isomer, unassigned) [Example D-215, tert-butyl (S)-3-(((5-(2-((((S)-3-((1r,4S)-4-hydroxy-4-methylcyclohexyl)-5-nitro-3,4-dihydro-2H-benzo[b][1,4]oxazin-7-yl)sulfonyl)carbamoyl)-5-(2-((R or S)-2-(2-isopropylphenyl)pyrrolidin-1-yl)-7-azaspiro[3.5]nonan-7-yl)phenoxy)-1H-pyrrolo[2,3-b]pyridin-6-yl)oxy)methyl) morpholine-4-carboxylate], the pIC50 is 9.00.
Consider `CC(C)c1ccccc1[C@@H]1CCC[C@@H]1N1CC2(CCN(c3ccc(C(=O)NS(=O)(=O)c4cc5c(c([N+](=O)[O-])c4)N[C@@H]([C@H]4CC[C@](C)(O)CC4)CO5)c(Oc4cnc5[nH]cc(F)c5c4)c3)CC2)C1=O` (single isomer, unassigned) [Example D-248, 2-((3-fluoro-1H-pyrrolo[2,3-b]pyridin-5-yl)oxy)-N-(((S)-3-((1r,4S)-4-hydroxy-4-methylcyclohexyl)-5-nitro-3,4-dihydro-2H-benzo[b] [1,4]oxazin-7-yl)sulfonyl)-4-(2-((1S,2S or 1R,2R)-2-(2-isopropylphenyl)cyclopentyl)-1-oxo-2,7-diazaspiro [3.5]nonan-7-yl)benzamide], for which the pIC50 was 9.00.
Take `CC(C)c1ccccc1[C@@H]1CCCN1C1CC2(CCN(c3ccc(C(=O)NS(=O)(=O)c4cc5c(c([N+](=O)[O-])c4)N[C@@H]([C@H]4CC[C@](C)(O)CC4)CO5)c(Oc4cc5cc[nH]c5nc4N4CCOCC4)c3)CC2)C1` (single isomer, unassigned) [Example D-57, N-(((S)-3-((1r,4S)-4-hydroxy-4-methylcyclohexyl)-5-nitro-3,4-dihydro-2H-benzo[b][1,4]oxazin-7-yl)sulfonyl)-4-(2-((R or S)-2-(2-isopropylphenyl)pyrrolidin-1-yl)-7-azaspiro[3.5]nonan-7-yl)-2-((6-morpholino-1H-pyrrolo [2,3-b]pyridin-5-yl)oxy)benzamide]: the pIC50 is 9.00.
Turning to `CC(C)c1ccccc1[C@@H]1CCCN1C1CC2(CCN(c3ccc(C(=O)NS(=O)(=O)c4cc5c(c([N+](=O)[O-])c4)N[C@@H]([C@H]4CC[C@](C)(O)CC4)CO5)c(Oc4cc5c(F)c[nH]c5nc4Cl)c3)CC2)C1` (single isomer, unassigned) [Example D-84, 2-((6-chloro-3-fluoro-1H-pyrrolo [2,3-b]pyridin-5-yl)oxy)-N-(((S)-3-((1r,4S)-4-hydroxy-4-methylcyclohexyl)-5-nitro-3,4-dihydro-2H-benzo[b][1,4]oxazin-7-yl)sulfonyl)-4-(2-((R or S)-2-(2-isopropylphenyl)pyrrolidin-1-yl)-7-azaspiro[3.5]nonan-7-yl)benzamide], the pIC50 was 9.00.
Next, `CC(C)c1ccccc1[C@@H]1CCCN1C1CC2(CCN(c3ccc(C(=O)NS(=O)(=O)c4cc5c(c([N+](=O)[O-])c4)N[C@@H]([C@H]4CC[C@](C)(O)CC4)CO5)c(Oc4cc5c(F)c[nH]c5nc4OC[C@H](C)O)c3)CC2)C1` (single isomer, unassigned) [Example D-221, 2-((3-fluoro-6-((S)-2-hydroxypropoxy)-1H-pyrrolo[2,3-b]pyridin-5-yl)oxy)-N-(((S)-3-((1r,4S)-4-hydroxy-4-methylcyclohexyl)-5-nitro-3,4-dihydro-2H-benzo[b][1,4]oxazin-7-yl)sulfonyl)-4-(2-((R or S)-2-(2-isopropylphenyl)pyrrolidin-1-yl)-7-azaspiro[3.5]nonan-7-yl)benzamide]: 9.00.
For the compound `CC(C)c1ccccc1[C@@H]1CCC[C@@H]1N1CC2(CCN(c3ccc(C(=O)NS(=O)(=O)c4ccc(NC[C@H]5CC[C@](C)(O)CC5)c([N+](=O)[O-])c4)c(Oc4cc5cc[nH]c5nc4OC[C@@H]4COCCO4)c3)CC2)C1` (single isomer, unassigned) [Example D-236, 2-((6-(((S)-1,4-dioxan-2-yl)methoxy)-1H-pyrrolo[2,3-b]pyridin-5-yl)oxy)-N-((4-(((1r,4r)-4-hydroxy-4-methylcyclohexyl)methyl)amino)-3-nitrophenyl)sulfonyl)-4-(2-((1S,2S or 1R,2R)-2-(2-isopropylphenyl)cyclopentyl)-2,7-diazaspiro[3.5]nonan-7-yl)benzamide], the pIC50 was 9.00.
The figure for `CC(C)c1ccccc1[C@@H]1CCC(=O)N1C1CC2(CCN(c3ccc(C(=O)NS(=O)(=O)c4cc5c(c([N+](=O)[O-])c4)N[C@@H]([C@H]4CC[C@](C)(O)CC4)CO5)c(Oc4cnc5[nH]cc(F)c5c4)c3)CC2)C1` [Example D-257, 2-((3-fluoro-1H-pyrrolo[2,3-b]pyridin-5-yl)oxy)-N-(((S)-3-((1r,4S)-4-hydroxy-4-methylcyclohexyl)-5-nitro-3,4-dihydro-2H-benzo[b] [1,4]oxazin-7-yl)sulfonyl)-4-(2-((S)-2-(2-isopropylphenyl)-5-oxopyrrolidin-1-yl)-7-azaspiro[3.5]nonan-7-yl)benzamide] is 9.00; for `CC(C)c1ccccc1[C@@H]1CN(S(=O)(=O)C2CC2)CCN1C1CC2(CCN(c3ccc(C(=O)NS(=O)(=O)c4cc5c(c([N+](=O)[O-])c4)N[C@@H]([C@H]4CC[C@](C)(O)CC4)CO5)c(Oc4cnc5[nH]cc(F)c5c4)c3)CC2)C1` (single isomer, unassigned) [Example D-81, 4-(2-((R or S)-4-(cyclopropylsulfonyl)-2-(2-isopropylphenyl)piperazin-1-yl)-7-azaspiro[3.5]nonan-7-yl)-2-((3-fluoro-1H-pyrrolo[2,3-b]pyridin-5-yl)oxy)-N-(((S)-3-((1r,4S)-4-hydroxy-4-methylcyclohexyl)-5-nitro-3,4-dihydro-2H-benzo[b][1,4]oxazin-7-yl)sulfonyl)benzamide] it is 9.00.
In the case of `CC(C)c1ccccc1[C@@H]1CCCN1C1CC2(CCN(c3ccc(C(=O)NS(=O)(=O)c4cc5c(c([N+](=O)[O-])c4)N[C@@H](C[C@H]4CC[C@](C)(O)CC4)CO5)c(Oc4cnc5[nH]cc(F)c5c4)c3)CC2)C1` (single isomer, unassigned) [Example D-19, 2-((3-fluoro-1H-pyrrolo[2,3-b]pyridin-5-yl)oxy)-N-(((S)-3-(((1r,4S)-4-hydroxy-4-methylcyclohexyl)methyl)-5-nitro-3,4-dihydro-2H-benzo[b][1,4]oxazin-7-yl)sulfonyl)-4-(2-((R or S)-2-(2-isopropylphenyl)pyrrolidin-1-yl)-7-azaspiro[3.5]nonan-7-yl)benzamide], the pIC50 is 8.05.
